Counter-ions that a name gives are not always drawn.
What was measured:
CDK7 = biological target: T1, CDK7 (Homo sapiens, UniProt P50613); assay: Adapta kinase assay (Life Technologies) against CDK7, co-factors cyclin H and MNAT1; assay type: biochemical; conditions: read-out: CDK7 Inhibition
T1 construct: purchased Life Technologies (Adapta kinase assay service)

HL-60 = assay: Inhibition of cell proliferation, CellTiter-Glo, 72 hour; assay type: cell-based; conditions: Homo sapiens, Blood cancer cell line, read-out: Inhibition of Proliferation HL60
THP-1 = assay: as above; assay type: cell-based; conditions: Homo sapiens, Blood cancer cell line
MV4-11 = assay: as above; assay type: cell-based; conditions: Homo sapiens, Blood cancer cell line
RS4-11 = assay: as above; assay type: cell-based; conditions: Homo sapiens, Blood cancer cell line
hTERT-HME1 = assay: as above; assay type: cell-based; conditions: Breast Cancer/Breast cell line
MDA-MB231 = assay: as above; assay type: cell-based; conditions: Homo sapiens, MDA-MB-231, Breast Cancer/Breast cell line
MCF-7 = assay: as above; assay type: cell-based; conditions: Homo sapiens, MCF7, Breast Cancer/Breast cell line
MCF-10A = assay: as above; assay type: cell-based; conditions: Homo sapiens, Breast Cancer/Breast cell line, read-out: Inhibition of Proliferation MCF10A
T47D = assay: as above; assay type: cell-based; conditions: Homo sapiens, Breast Cancer/Breast cell line
SKBR-3 = assay: as above; assay type: cell-based; conditions: Homo sapiens, SK-BR-3, Breast Cancer/Breast cell line, read-out: Inhibition of Proliferation SKBR3
A673 = assay: as above; assay type: cell-based; conditions: Homo sapiens, Ewing's Sarcoma cell line
Protocol: (§1) • Hs863T—DMEM (4 mM L-Glut, 4.5 g/L Glucose, 1 mM pyruvate, 1.5 g/l bicarb)+10% FBS • Hs822T—DMEM (4 mM L-Glut, 4.5 g/L Glucose, 1 mM pyruvate, 1.5 g/l bicarb)+10% FBS • A673—DMEM (4 mM L-Glut, 4.5 g/L Glucose, 1 mM pyruvate, 1.5 g/l bicarb)+10% FBS • SKES-1—McCoy's 5a Medium Modified (modified—1.5 mM L-glut, 2.2 g/L bicarb)+15% FBS • RD-ES—RPMI 1640+15% FBS.

Hs822T = assay: as above; assay type: cell-based; conditions: Ewing's Sarcoma cell line
Protocol: as §1

Hs863T = assay: as above; assay type: cell-based; conditions: Ewing's Sarcoma cell line
Protocol: as §1

RD-ES = assay: as above; assay type: cell-based; conditions: Ewing's Sarcoma cell line
Protocol: as §1

SKES-1 = assay: as above; assay type: cell-based; conditions: Homo sapiens, SK-ES1, Ewing's Sarcoma cell line, read-out: Inhibition of Proliferation SK-ES
Protocol: as §1

SAOS = assay: as above; assay type: cell-based; conditions: Osteosarcoma cell line
MNNG-Hos Cl#5 = assay: as above; assay type: cell-based; conditions: Osteosarcoma cell line
143B = assay: as above; assay type: cell-based; conditions: Homo sapiens, Osteosarcoma cell line
Jurkat = assay: as above; assay type: cell-based; conditions: Homo sapiens, Jurkat, 72 h, Blood cancer cell line; 72 hour; read-out: Inhibition of Proliferation of Jurkat Cells
Protocol: The following cancer cell lines were tested with the media conditions indicated: […]

T1 sequence (P50613 whole entry): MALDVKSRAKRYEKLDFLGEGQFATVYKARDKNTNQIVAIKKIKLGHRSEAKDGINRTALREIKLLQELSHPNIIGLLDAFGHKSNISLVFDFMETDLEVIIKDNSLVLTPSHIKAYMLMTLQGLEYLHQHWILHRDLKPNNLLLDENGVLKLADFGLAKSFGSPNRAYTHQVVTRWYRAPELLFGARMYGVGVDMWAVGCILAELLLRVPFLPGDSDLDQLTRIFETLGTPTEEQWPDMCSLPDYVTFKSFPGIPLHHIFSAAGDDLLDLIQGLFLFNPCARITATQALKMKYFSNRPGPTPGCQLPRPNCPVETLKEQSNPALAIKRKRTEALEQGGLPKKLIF
T1 sequence (P51946 whole entry partner): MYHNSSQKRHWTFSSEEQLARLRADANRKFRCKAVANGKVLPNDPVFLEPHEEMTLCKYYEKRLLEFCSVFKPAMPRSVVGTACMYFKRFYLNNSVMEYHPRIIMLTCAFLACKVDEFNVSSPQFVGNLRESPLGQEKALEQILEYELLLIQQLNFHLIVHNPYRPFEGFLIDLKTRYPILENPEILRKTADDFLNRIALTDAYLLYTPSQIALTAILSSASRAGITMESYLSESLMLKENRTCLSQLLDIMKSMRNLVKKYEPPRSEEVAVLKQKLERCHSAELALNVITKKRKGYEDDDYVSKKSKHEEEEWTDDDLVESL
T1 sequence (P51948 whole entry partner): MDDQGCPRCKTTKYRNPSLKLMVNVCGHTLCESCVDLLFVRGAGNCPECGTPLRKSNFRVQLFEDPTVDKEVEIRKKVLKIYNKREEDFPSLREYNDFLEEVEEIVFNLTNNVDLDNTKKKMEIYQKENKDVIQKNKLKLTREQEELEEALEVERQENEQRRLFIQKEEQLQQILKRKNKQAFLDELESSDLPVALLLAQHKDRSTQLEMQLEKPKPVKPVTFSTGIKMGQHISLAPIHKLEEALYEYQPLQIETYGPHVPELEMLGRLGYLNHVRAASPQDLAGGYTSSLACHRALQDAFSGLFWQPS

| IC50 (CDK7) [nM] | IC50 (HL-60) [nM] | IC50 (THP-1) [nM] | IC50 (MV4-11) [nM] | IC50 (RS4-11) [nM] | IC50 (MDA-MB231) [nM] | IC50 (MCF-7) [nM] | IC50 (T47D) [nM] | IC50 (SKBR-3) [nM] | IC50 (SKES-1) [nM] | IC50 (Jurkat) [nM] | SMILES | IC50 (hTERT-HME1) [nM] | IC50 (MCF-10A) [nM] | IC50 (A673) [nM] | IC50 (Hs822T) [nM] | IC50 (Hs863T) [nM] | IC50 (RD-ES) [nM] | IC50 (SAOS) [nM] | IC50 (MNNG-Hos Cl#5) [nM] | IC50 (143B) [nM] |
| --- | --- | --- | --- | --- | --- | --- | --- | --- | --- | --- | --- | --- | --- | --- | --- | --- | --- | --- | --- | --- |
| < 100 | < 500 | < 500 | < 500 | < 500 | < 500 | > 5000 | > 5000 | > 5000 | < 500 | < 500 | CN(C)C/C=C/C(=O)Nc1ccc(C(=O)N2CC[C@@H](Nc3ncc(C#N)c(-c4c[nH]c5ccccc45)n3)C2)cc1 [Compound 103, (E)-N-(4-((R)-3-(5-cyano-4-(1H-indol-3-yl)pyrimidin-2-ylamino)pyrrolidine-1-carbonyl)phenyl)-4-(dimethylamino)but-2-enamide] | < 500 | < 500 | < 500 | > 5000 | > 5000 | < 500 | < 500 | 500 to 5000 | > 5000 |
| < 100 | < 500 | < 500 | < 500 | < 500 | < 500 | < 500 | > 5000 | > 5000 | < 500 | < 500 | CN(C)C/C=C/C(=O)Nc1ccc(C(=O)N2CCC(Nc3ncc(Cl)c(-c4c[nH]c5ccccc45)n3)CC2)cc1 [Compound 100, (E)-N-(4-(4-(5-chloro-4-(1H-indol-3-yl)pyrimidin-2-ylamino)piperidine-1-carbonyl)phenyl)-4-(dimethylamino)but-2-enamide] | < 500 | < 500 | < 500 | 500 to 5000 | > 5000 | < 500 | < 500 | 500 to 5000 | > 5000 |
| 100 to 1000 | > 5000 | > 5000 | < 500 | 500 to 5000 | > 5000 | > 5000 | > 5000 | > 5000 | 500 to 5000 | 500 to 5000 | CN(C)C/C=C/C(=O)Nc1ccc(C(=O)N2CC[C@H](Nc3ncc(Cl)c(-c4c[nH]c5ccccc45)n3)C2)cc1 [Compound 101, (E)-N-(4-((S)-3-(5-chloro-4-(1H-indol-3-yl)pyrimidin-2-ylamino)pyrrolidine-1-carbonyl)phenyl)-4-(dimethylamino)but-2-enamide] | 500 to 5000 | 500 to 5000 | 500 to 5000 | > 5000 | > 5000 | > 5000 | > 5000 | > 5000 | > 5000 |

Continued, compound first:

| SMILES | IC50 (CDK7) [nM] | IC50 (HL-60) [nM] | IC50 (THP-1) [nM] | IC50 (MV4-11) [nM] | IC50 (RS4-11) [nM] | IC50 (MDA-MB231) [nM] | IC50 (MCF-7) [nM] | IC50 (T47D) [nM] | IC50 (SKBR-3) [nM] | IC50 (SKES-1) [nM] | IC50 (Jurkat) [nM] | IC50 (hTERT-HME1) [nM] | IC50 (MCF-10A) [nM] | IC50 (A673) [nM] | IC50 (Hs822T) [nM] | IC50 (Hs863T) [nM] | IC50 (RD-ES) [nM] | IC50 (SAOS) [nM] | IC50 (MNNG-Hos Cl#5) [nM] | IC50 (143B) [nM] |
| --- | --- | --- | --- | --- | --- | --- | --- | --- | --- | --- | --- | --- | --- | --- | --- | --- | --- | --- | --- | --- |
| CN(C)C/C=C/C(=O)Nc1ccc(C(=O)N2CCC(Nc3ncc(C#N)c(-c4c[nH]c5ccccc45)n3)CC2)cc1 [Compound 102, (E)-N-(4-(4-(5-cyano-4-(1H-indol-3-yl)pyrimidin-2-ylamino)piperidine-1-carbonyl)phenyl)-4-(dimethylamino)but-2-enamide] | < 100 | < 500 | < 500 | < 500 | < 500 | < 500 | < 500 | > 5000 | > 5000 | < 500 | < 500 | < 500 | < 500 | < 500 | 500 to 5000 | > 5000 | < 500 | < 500 | > 5000 | > 5000 |
| CN(C)C/C=C/C(=O)Nc1ccc(C(=O)N2CC[C@@H](Nc3ncc(Cl)c(-c4c[nH]c5ccccc45)n3)C2)cc1 [Compound 104, (E)-N-(4-((R)-3-(5-chloro-4-(1H-indol-3-yl)pyrimidin-2-ylamino)pyrrolidine-1-carbonyl)phenyl)-4-(dimethylamino)but-2-enamide.TFA] | < 100 | < 500 | < 500 | < 500 | < 500 | < 500 | 500 to 5000 | > 5000 | > 5000 | < 500 | < 500 | < 500 | < 500 | < 500 | 500 to 5000 | > 5000 | < 500 | < 500 | > 5000 | > 5000 |

Source: patent publication US20190292167A1, “HETEROAROMATIC COMPOUNDS USEFUL FOR THE TREATMENT OF PROLIFERATIVE DISEASES” (Syros Pharmaceuticals, Inc., priority 2013, published 2019)
